# From paper PMC11727121, “Intrinsic PD‐L1 Degradation Induced by a Novel Self‐Assembling Hexapeptide for Enhanced Cancer Immunotherapy” (Advanced Science, 2024)
# Square brackets hold non-standard residues; d marks the D form. Ends that are not written are not given here. Peptide text beside a SMILES is read from it. Met(O) = CS(=O)CC[C@H](N)C(=O)O
# Tests used:
# [1] = tested on: HUVEC cells; test: MTT cytotoxicity assay, HUVEC cells; assay type: cell-based, Human; details: 24 h
# Procedure: (§1) In Vitro Cell Cytotoxicity and Cell Apoptosis Assay
# (§2) The cytotoxicity of KFM and KFMo were assessed as follows. Briefly, 4T1, MC38 and HUVEC cells were seeded on 96-well plate (5000 cells per well) overnight.
# (§3) The cells were incubated with 100 µL fresh DMEM containing with various concentration of for 24 h, respectively. Moreover, the 4T1 and MC38 tumor cells co- […]
# (§4) cells viability was evaluated using the MTT assay.
# (§5) Subsequently, the cells at a density of 1 × 104 were cultivated into 96-well plate and then cultured with or without H2O2 (5 µM or 100 µM) for 24 h. The cells viability was evaluated using the MTT assay. […]
# [2] = tested on: MC38 cells; test: MTT cytotoxicity assay, MC38 cells; assay type: cell-based, mouse; details: 24 h
# Procedure: as §1, §2, §3, §4, §5
# [3] = tested on: 4T1 cells; test: MTT cytotoxicity assay, 4T1 cells; assay type: cell-based, mouse; details: 24 h
# Procedure: as §1, §2, §3, §4, §5
# [4] = tested on: PD-L1; test: Western blot analysis of PD-L1 expression in 4T1 cells; assay type: cell-based, mouse
# Procedure: (§6) In vitro Immunogenic Cell Death Assay […]
# (§7) presence of DAMPs within indicated treatments were examined by calreticulin (CRT) and high mobility group box 1 protein (HMGB1) expression level. Firstly, 5 × 104 […]
# (§8) And then, fixed with 4% formaldehyde for 30 min at room temperature, and washed twice with PBS. A blocking solution of 10% goat serum was added to the wells and incubated for 50 min to minimize nonspecific antibody adsorption. The cells were treated with primary antibodies overnight at 4 ℃, subsequently, stained with FITC -labeled secondary antibodies for 2 h, followed by mounting solution with DAPI, images captured by fluorescence microscopy (Leica DMI3000B). The fluorescence intensity was analyzed using Image J.
# (§9) Western Blotting Analysis
# (§10) Cellular proteins were extracted with the lysis buffer containing 8 M urea, 0.05 M Tris-HCl (pH 7.5), 1% β-Mercaptoethanol, 1% protease inhibitor, and 1% phosphatase inhibitor, while tumor protein was extracted with the medium RIPA lysis buffer containing 1% protease inhibitor and 1% phosphatase inhibitors by 1-minute ultrasonication, then kept on ice for 30 minutes and microcentrifugated at 12,000 g for 15 minutes at 4 ℃ to remove debris. Immunoblotting was performed using 30 µg and 50 μg of protein lysates from cells and tumors, respectively . […]
# [5] = tested on: PD-L1; test: Western blot analysis of PD-L1 expression in MC38 cells; assay type: cell-based, mouse; details: compared to PBS control
# Procedure: as §6, §7, §8, §9, §10
# [6] = tested on: MC38 tumor; test: In vivo antitumor study in MC38 tumor-bearing mice; details: MC38 model, peritumoral, MTX 1.5 mg/kg, MET 69.5 mg/kg equivalents, day 0 and 3, n = 5
# [7] = tested on: 4T1 cells; test: Cell apoptosis assay by flow cytometry (Annexin V / PI); assay type: cell-based, mouse; details: 24 h, 5 µM MTX or equivalent, absence of H2O2
# Procedure: In Vitro Cell Cytotoxicity and Cell Apoptosis Assay […]
# plates at a density of 2 × 10^5 cells/well.
# Following incubation, all cells were harvested and
# stained with Annexin V and propidium iodide (PI) according to the manufacturer's
# protocol. Apoptosis was immediately analyzed using flow cytometry.
# [8] = tested on: 4T1 cells; test: In vitro immunogenic cell death assay (CRT, HMGB1); assay type: cell-based, mouse; details: 12 h, fluorescence staining
# Procedure: as §6, §7, §8, §9, §10
compound,measurement,setting,value
C[S+]([O-])CC[C@H](NC(=O)[C@H](Cc1ccccc1)NC(=O)[C@H](CC[S+](C)[O-])NC(=O)[C@H](Cc1ccccc1)NC(=O)[C@@H](N)CCCCN)C(=O)N[C@@H](CCCCN)C(N)=O (stereo partly shown) [KFM°] (H-KF[Met(O)]F[Met(O)]K-NH2),cytotoxicity of peptide (MTT),[1],negligible cytotoxicity
same,cytotoxicity of peptide (MTT),[2],negligible cytotoxicity
same,cytotoxicity of peptide (MTT),[3],negligible cytotoxicity
"CN(C)C(=N)N=C(N)N [MET, metformin]","PD-L1 expression (Western blot), in words",[4],reduced
same,"PD-L1 expression (Western blot), in words",[5],reduced
"KFMFMK-NH2 [KFM, Lys‐Phe‐Met‐Phe‐Met‐Lys]",cytotoxicity of peptide (MTT),[1],negligible cytotoxicity
same,cytotoxicity of peptide (MTT),[2],negligible cytotoxicity
same,cytotoxicity of peptide (MTT),[3],negligible cytotoxicity
"O=C1c2c(O)ccc(O)c2C(=O)c2c(NCCNCCO)ccc(NCCNCCO)c21 [MTX, mitoxantrone]",tumor growth,[6],partially slowed tumor growth
same,percentage of apoptotic cells,[7],61.3%
same,"CRT expression compared to PBS control, in words",[8],marked increase
same,cytotoxicity of MTX formulations (MTT),[2]; without H2O2,dose‐dependent cytotoxicity
same,cytotoxicity of MTX formulations (MTT),[3]; without H2O2,dose‐dependent cytotoxicity
